Test results from US5574059A, “Treating disorders mediated by vascular smooth muscle cell proliferation” (priority 1995, dated 1996).
Like-named read-outs stand apart in the source and are kept apart here.

What was measured:
[1] = Example IV: patient with fibromuscular dysplasia of the renal artery, angioplasty; type: in vivo, human; conditions: idazoxan 75 mg/day; UK 14,304 60, naphazoline 125, cirazoline 60, agmatine 900 mg/day
[2] = Example I: patient with intermittent claudication, iliac artery plaques; type: in vivo, human; conditions: over 30 days oral; idazoxan 50 and 75 mg/day, UK 14,304 125, naphazoline 125, cirazoline 75, agmatine 900 mg/day
Text: A person presents with progressive symptoms of intermittent claudication in both legs.

[3] = Example III: patient with coronary artery disease, angioplasty; type: in vivo, human; conditions: idazoxan 50 mg/day continued for 3 months; substitutes, dose not stated
Protocol: A person presents with the onset of chest pain on exertion. […] Ten days before angioplasty, the patient is begun on 75 or 100 mg/day of idazoxan. […] Treatment with 50 mg/day idazoxan is continued for 3 months.

[4] = Example V: patient with Type I diabetes mellitus, overgrowth of retinal vessels; type: in vivo, human; conditions: idazoxan 75 mg/day; UK 14,304 60, naphazoline 125, cirazoline 60, agmatine 900 mg/day
Text: A person with Type I diabetes mellitus and maintained on insulin presents with progressive symptoms of loss of visual acuity bilaterally with evidence on opthalmascopic examination of overgrowth of retinal vessels and hemorrhages.

[5] = Example II: patient with narrowing of right common carotid artery, balloon angiography; type: in vivo, human; conditions: idazoxan 50 or 75 mg/day two weeks before and 3 months after balloon angiography; UK 14,304 125, cirazoline 60, naphazoline 125, agmatine 900 mg/day
Protocol: A person presents with a history of intermittent brief episodes of transient monocular blindness in the right eye associated with clumsiness and weakness of the left arm and leg. Angiography indicates substantial narrowing of the right common carotid artery. They are with treated with idazoxan at a dosage of 50 or 75 mg/day for two weeks preceding balloon angiography and for 3 months thereafter.

I2 imidazoline receptors = assay: inhibition of 3H-idazoxan (5 nM) binding to rat aortic smooth muscle cell membranes; conditions: Table 2; 3H-idazoxan 5 nM; rat aortic smooth muscle cell membranes; read-out: Ki
Protocol: Binding to I2 imidazoline receptors is determined by the following assay. Membranes are prepared from cultured cells for ligand binding as described in Regunathan, S., et al, Biochem. Pharmacol. 45, 1667-1675 (1993) and Regunathan, S., et al, J. Neurosci. Res. 34, 681-688 (1993) and the disclosure in these on this is incorporated herein by reference. In particular, harvested rat aortic smooth muscle cells are homogenized in Hepes-sucrose buffer (pH 7.4) with a Teflon-glass homogenizer and centrifuged at 1000 × g for 10 minutes. The pellets are suspended in ice-cold Tris-HCl buffer (pH 7.7) with 5mM ethylene diamine tetracetic acid and homogenized using a Polytron (Brinkman Instruments) for 10 seconds. The homogenate is centrifuged at 40,000 × g for 30 minutes to produce a membrane pellet. The membrane pellet is washed three times by resuspending in buffer and re-centrifuging. The washed pellet is suspended in fresh Tris-HCl buffer (pH 7.4) to provide approximately 100 μg protein per assay tube. Binding assays are performed in Tris-HCl buffer (pH 7.7) using 5 nM of […]. Non-specific binding is defined by 100 μM of unlabelled idazoxan which will inhibit the specific binding of ^3 H-idazoxan. Thus the binding remaining in the presence 100 μM of idazoxan is due to non-specific binding and this will be substracted from total binding to calculate the specific binding. Following incubation at 25° C. for 30 minutes, reaction is terminated by rapid vacuum filtration over Whatman GF/B filters and washed with 10 ml of ice-cold buffer. Filters are suspended in scintillation fluid and radioactivity counted in a liquid scintillation counter. Membrane protein is assayed by Coomassie Blue method (Pierce) using bovine serum albumin as standard.
Determination of inhibition constant (Ki) for each drug is determined as follows: The binding of ^3 H-idazoxan to membranes of vascular smooth muscle cells is determined in the presence of 0.1 nM to 100 μM concentrations of potential drug. The percent inhibition of specific binding of ^3 H-idazoxan by each concentration is calculated and plotted against concentration. The data is analyzed by non-linear curve fitting program, LIGAND and the IC50 value for each potential drug is calculated. The affinity for each drug (Ki) for I2 imidazoline receptors is calculated using the formula Ki =IC50 /1+L/Kd where L is the concentration of ^3 H-idazoxan used for binding and Kd is the dissociation constant for ^3 H-idazoxan for I2 imidazoline receptors. The dissociation constant (Kd) is determined by Scatchard analysis of the saturation binding of ^3 H-idazoxan using the formula [formula] where B and F are the amount of bound and free ligand, respectively, and Bmax is the number of binding sites.
Primary cultures of rat-aortic smooth muscle cells were prepared by a modification (described in Erlinge, Do, et al, Am. J. Physiol. 265, H1089-1097, 1993) of the method of Meyer-Lehnert and Schrier (Meyer-Lehnert, H., et al, Hypertension 13,350-361, 1989), the disclosure of these cited articles being incorporated herein by reference. Briefly, rats were killed by anesthetic overdose and the aorta were removed and incubated with collagenase (2 mg/ml) in Dulbecco's modified Eagle's minimum essential medium (DMEM). The vessel was stripped of adventitia, cut longitudinally and the intima scraped away. After further collagenase treatment, the remaining tissue was passed 20 times through 18 and 16 gauge needles. The resulting cell suspension was centrifuged at 500 × g for 5 minutes and resuspended in DMEM containing penicillin (100 units/ml), streptomycin (100 μg/ml), 2 mM L-glutamine and 10% fetal calf serum. The suspended cells were plated in T-75 flasks, cultured until confluent, and subcultured in 100 mm plates. The confluent cells were harvested and membranes were prepared. Cell viability was determined by trypan blue exclusion.

[6] = system: rat aortic smooth muscle cells; assay: serum-stimulated proliferation, 3H-thymidine incorporation into DNA; type: cell-based; conditions: for IC50: Rattus norvegicus, read-out: 3H-thymidine incorporated (IC50)
Protocol: Inhibition of serum-stimulated proliferation of rat aortic smooth muscle cells is determined as follows: The antiproliferative effect of potential drug is determined by measuring the incorporation of ^3 H-thymidine into cellular DNA. Exposure of quiescent vascular smooth muscle cell to serum, which contains many growth factors, results in a large increase in cellular proliferation as measured by ^3 H-thymidine incorported into DNA. The inhibitory effect of potential drug on serum-stimulated proliferation is tested by adding a drug before the addition of serum and determining if the serum-stimulated proliferation is reduced. […] In that event, antagonizing of the antiproliferative effect of idazoxan is determined by adding antagonist before the addition of idazoxan to serum-stimulated vascular smooth muscle cells.
In this experiment, the proliferation of vascular smooth muscle cells was determined by measuring DNA replication. The incorporation of ^3 H-thymidine into DNA was used to measure the replication of DNA as described in Erlinge, D., et al, Am. J. Physiol. 265, H1089-H1097 (1993) which is incorporated herein by reference.
Rat aortic smooth muscle cells prepared as described in In Vitro Example 1 were plated into 24-well plates at a density of about 30,000 cells/well in 10% fetal calf serum (FCS). After 48 hours, the cells were starved in 0.5% FCS for another 48 hours to decrease proliferation and induce quiescence. The medium was replaced by serum-free medium 24 hours prior to addition of drug (drugs are described below) and 10% fetal calf serum or only 10% fetal calf serum in the case of the control. The cells were then incubated for 24 hours and ^3 H-thymidine (1 μCi/well) was added at hour 20. At the end of the 24 hour period, the medium was aspirated and the cells were washed three times with phosphate-buffered saline and twice with ice-cold trichloroacetic acid. Fixed cells were then solubilized in 0.2M NaOH and sonicated. A 100 μl aliquot was used for scintillation counting.

[7] = 10% fetal calf serum stimulated

| SMILES | re-elevation of pressure / restenosis of the renal artery [1] | symptoms of intermittent claudication [2] | symptoms / restenosis after angioplasty [3] | progression and visual symptoms [4] | symptoms and restenosis of the vessel [5] | Ki (I2 imidazoline receptors) [µM] | inhibition of vascular smooth muscle cell proliferation, in words [6, 7] | IC50 [6] [µM] | IC50 ([6]; 10% fetal calf serum stimulated, 24 h) [µM] |
| --- | --- | --- | --- | --- | --- | --- | --- | --- | --- |
| NCCCCN=C(N)N [Agmatine, 4-(aminobutylguanidine)] | comparable results, i.e., no restenosis | stabilization of symptoms | comparable results, i.e., no restenosis | comparable results, i.e., no restenosis | comparable results | 0.24 ± 0.025 | weakly inhibited | 340 ± 29 | – |
| Brc1c(NC2=NCCN2)ccc2nccnc12 [UK 14,304, 5-bromo-N-(4,5-dihydro-1-H-imidazol-2-yl)-6-quinoxalinamine] | comparable results, i.e., no restenosis | stabilization of symptoms | comparable results, i.e., no restenosis | comparable results, i.e., no restenosis | comparable results | 0.02 ± 0.0014 | potently inhibited | – | 15.6 ± 2.8 |
